{
  "source": "patent US20100197797A1",
  "about": "(priority 2009, published 2010)",
  "key": {"fibromyalgia patients": {"tested_on": "fibromyalgia patients", "assay": "Placebo-controlled trials in fibromyalgia patients (safety)", "format": "in vivo, human", "conditions": "for patients with >15 mmHg increase in SBP at the end of the study / patients with DBP increases >10 mmHg at end of study: hypertensive at baseline; for patients with increases in ALT: mild elevations (1-3 times ULN); for patients who became hypertensive at the end of the study (SBP≧140 mmHg or DBP≧90 mmHg): non-hypertensive at baseline; for incidence of suicidal ideation: patients with a history of depression at treatment initiation; for patients who became hypertensive at the end of the study: pre-hypertension at baseline (SBP 120-139 mmHg); for mean weight loss: up to 3 months", "source_text": "The stated frequencies of adverse reactions represent the proportion of individuals who experienced, at least once, a treatment-emergent adverse reaction of the type listed. A reaction was considered treatment emergent if it occurred for the first time or worsened while receiving therapy following baseline evaluation."}, "patients": {"tested_on": "patients", "assay": "Spontaneous / postmarketing reports", "format": "in vivo, human", "conditions": "post-marketing, multiple drugs but also milnacipran hydrochloride only", "source_text": "However, because these adverse reactions were reported voluntarily from a population of uncertain size, it is not always possible to reliably estimate their frequency or establish a causal relationship to drug exposure."}, "fibromyalgia [1]": {"tested_on": "fibromyalgia", "assay": "Study 1, 6-month fibromyalgia efficacy study", "format": "in vivo, human", "source_text": "(§1) Enrolled patients met the American College of Rheumatology (ACR) criteria for fibromyalgia (a history of widespread pain for 3 months and pain present at 11 or more of the 18 specific tender point sites). […] Study 1 was six months in duration and Study 2 was three months in duration.\nPatients were enrolled with a minimum mean baseline pain score of ≧50 mm on a 100 mm visual analog scale (VAS) ranging from 0 (“no pain”) to 100 (“worst possible pain”). The mean baseline pain score in this trial was 69."}, "fibromyalgia [2]": {"tested_on": "fibromyalgia", "assay": "Study 2, 3-month fibromyalgia efficacy study", "format": "in vivo, human", "source_text": "as §1\nPatients were enrolled with a minimum mean baseline pain score of ≧40 mm on a 100-mm VAS ranging from 0 (“no pain”) to 100 (“worst possible pain”). The mean baseline pain score in this trial was 65."}, "plasma proteins": {"tested_on": "plasma proteins", "assay": "Plasma protein binding", "format": "in vitro ADME"}, "humans": {"tested_on": "humans", "assay": "Acute overdose in clinical trials", "format": "in vivo, human", "conditions": "up to 1000 mg, alone or in combination with other drugs", "source_text": "There is limited clinical experience with milnacipran hydrochloride overdose in humans."}, "[3]": {"conditions": "3-month placebo-controlled trials"}, "[4]": {"conditions": "all milnacipran hydrochloride (n = 1557)"}, "[5]": {"conditions": "100 mg and 200 mg daily, 3-month time point"}},
  "data": [
    {"molecule": "CCN(CC)C(=O)C1(c2ccccc2)CC1CN.Cl", "note": "(racemic) [milnacipran hydrochloride, (±)-[1R(S),2S(R)]-2-(aminomethyl)-N,N-diethyl-1-phenylcyclopropanecarboxamide hydrochloride]", "values": [
      {"measurement": "Adverse reaction incidence: Upper respiratory tract infection", "setting": "fibromyalgia patients; 200 mg/day (n = 934)", "value": 6, "unit": "%"},
      {"measurement": "Adverse reaction incidence: Vision blurred", "setting": "fibromyalgia patients; 200 mg/day (n = 934)", "value": 2, "unit": "%"},
      {"measurement": "Adverse reaction incidence: Vomiting", "setting": "fibromyalgia patients; 200 mg/day (n = 934)", "value": 7, "unit": "%"},
      {"measurement": "mean increase in diastolic blood pressure (DBP)", "setting": "fibromyalgia patients; [3]", "value": "up to 3.1 mm Hg"},
      {"measurement": "mean increase in systolic blood pressure (SBP)", "setting": "fibromyalgia patients; [3]", "value": "up to 3.1 mm Hg"},
      {"measurement": "dose dependence of effect on heart rate", "setting": "fibromyalgia patients; 100 vs 200 mg/day", "value": "did not appear to increase with increasing dose"},
      {"measurement": "Adverse reaction incidence: Abdominal pain", "setting": "fibromyalgia patients; [4]", "value": 3, "unit": "%"},
      {"measurement": "Adverse reaction incidence: Anxiety", "setting": "fibromyalgia patients; [4]", "value": 4, "unit": "%"},
      {"measurement": "Adverse reaction incidence: Blood pressure increased", "setting": "fibromyalgia patients; [4]", "value": 3, "unit": "%"},
      {"measurement": "Adverse reaction incidence: Chest discomfort", "setting": "fibromyalgia patients; [4]", "value": 1, "unit": "%"},
      {"measurement": "Adverse reaction incidence: Chest pain", "setting": "fibromyalgia patients; [4]", "value": 2, "unit": "%"},
      {"measurement": "Adverse reaction incidence: Chills", "setting": "fibromyalgia patients; [4]", "value": 2, "unit": "%"},
      {"measurement": "Adverse reaction incidence: Constipation", "setting": "fibromyalgia patients; [4]", "value": 16, "unit": "%"},
      {"measurement": "Adverse reaction incidence: Decreased appetite", "setting": "fibromyalgia patients; [4]", "value": 2, "unit": "%"},
      {"measurement": "Adverse reaction incidence: Dizziness", "setting": "fibromyalgia patients; [4]", "value": 10, "unit": "%"},
      {"measurement": "Adverse reaction incidence: Dry mouth", "setting": "fibromyalgia patients; [4]", "value": 5, "unit": "%"},
      {"measurement": "Adverse reaction incidence: Dyspnea", "setting": "fibromyalgia patients; [4]", "value": 2, "unit": "%"},
      {"measurement": "Adverse reaction incidence: Flushing", "setting": "fibromyalgia patients; [4]", "value": 3, "unit": "%"},
      {"measurement": "Adverse reaction incidence: Headache", "setting": "fibromyalgia patients; [4]", "value": 18, "unit": "%"},
      {"measurement": "Adverse reaction incidence: Heart rate increased", "setting": "fibromyalgia patients; [4]", "value": 6, "unit": "%"},
      {"measurement": "Adverse reaction incidence: Hot flush", "setting": "fibromyalgia patients; [4]", "value": 12, "unit": "%"},
      {"measurement": "Adverse reaction incidence: Hyperhidrosis", "setting": "fibromyalgia patients; [4]", "value": 9, "unit": "%"},
      {"measurement": "Adverse reaction incidence: Hypertension", "setting": "fibromyalgia patients; [4]", "value": 5, "unit": "%"},
      {"measurement": "Adverse reaction incidence: Hypoesthesia", "setting": "fibromyalgia patients; [4]", "value": 1, "unit": "%"},
      {"measurement": "Adverse reaction incidence: Insomnia", "setting": "fibromyalgia patients; [4]", "value": 12, "unit": "%"},
      {"measurement": "Adverse reaction incidence: Migraine", "setting": "fibromyalgia patients; [4]", "value": 5, "unit": "%"},
      {"measurement": "Adverse reaction incidence: Nausea", "setting": "fibromyalgia patients; [4]", "value": 37, "unit": "%"},
      {"measurement": "Adverse reaction incidence: Palpitations", "setting": "fibromyalgia patients; [4]", "value": 7, "unit": "%"},
      {"measurement": "Adverse reaction incidence: Paresthesia", "setting": "fibromyalgia patients; [4]", "value": 2, "unit": "%"},
      {"measurement": "Adverse reaction incidence: Pruritus", "setting": "fibromyalgia patients; [4]", "value": 2, "unit": "%"},
      {"measurement": "Adverse reaction incidence: Rash", "setting": "fibromyalgia patients; [4]", "value": 3, "unit": "%"},
      {"measurement": "Adverse reaction incidence: Tachycardia", "setting": "fibromyalgia patients; [4]", "value": 2, "unit": "%"},
      {"measurement": "Adverse reaction incidence: Tension headache", "setting": "fibromyalgia patients; [4]", "value": 1, "unit": "%"},
      {"measurement": "Adverse reaction incidence: Tremor", "setting": "fibromyalgia patients; [4]", "value": 2, "unit": "%"},
      {"measurement": "Adverse reaction incidence: Upper respiratory tract infection", "setting": "fibromyalgia patients; [4]", "value": 6, "unit": "%"},
      {"measurement": "Adverse reaction incidence: Vision blurred", "setting": "fibromyalgia patients; [4]", "value": 2, "unit": "%"},
      {"measurement": "Adverse reaction incidence: Vomiting", "setting": "fibromyalgia patients; [4]", "value": 7, "unit": "%"},
      {"measurement": "elevated transaminases vs placebo", "setting": "fibromyalgia patients; clinical trials", "value": "more patients treated with milnacipran hydrochloride developed elevated transaminases"},
      {"measurement": "risk of mydriasis", "setting": "fibromyalgia patients; clinical trials", "value": "increased risk of mydriasis"},
      {"measurement": "incidence of dysuria", "setting": "fibromyalgia patients; controlled fibromyalgia trials", "value": 1, "unit": "%"},
      {"measurement": "incidence of genitourinary adverse reactions in male patients", "setting": "fibromyalgia patients; each of dysuria, ejaculation disorder, erectile dysfunction, ejaculation failure, libido decreased, prostatitis, scrotal pain, testicular pain, testicular swelling, urinary hesitation, urinary retention, urethral pain, urine flow decreased, rate greater than placebo", "value": "at least 2%"},
      {"measurement": "increases of bilirubin", "setting": "fibromyalgia patients; fibromyalgia clinical trials", "value": "not clinically significant"},
      {"measurement": "cases of ALT>3×ULN associated with bilirubin≧2×ULN", "setting": "fibromyalgia patients; human, in vivo", "value": "No case"},
      {"measurement": "most common adverse reactions (incidence≧5% and twice placebo)", "setting": "fibromyalgia patients; human, in vivo", "value": "constipation, hot flush, hyperhidrosis, vomiting, palpitations, heart rate increased, dry mouth, and hypertension"},
      {"measurement": "most frequently occurring adverse reaction", "setting": "fibromyalgia patients; human, in vivo", "value": "nausea"},
      {"measurement": "patients with >15 mmHg increase in SBP at the end of the study", "setting": "fibromyalgia patients; 100 mg/day", "value": 7, "unit": "%"},
      {"measurement": "patients with DBP increases >10 mmHg at end of study", "setting": "fibromyalgia patients; 100 mg/day", "value": 8, "unit": "%"},
      {"measurement": "patients with >15 mmHg increase in SBP at the end of the study", "setting": "fibromyalgia patients; 200 mg/day", "value": 2, "unit": "%"},
      {"measurement": "patients with DBP increases >10 mmHg at end of study", "setting": "fibromyalgia patients; 200 mg/day", "value": 6, "unit": "%"},
      {"measurement": "patients with increases in ALT", "setting": "fibromyalgia patients; 100 mg/day", "value": 6, "unit": "%"},
      {"measurement": "patients with increases in ALT", "setting": "fibromyalgia patients; 200 mg/day", "value": 7, "unit": "%"},
      {"measurement": "patients who became hypertensive at the end of the study (SBP≧140 mmHg or DBP≧90 mmHg)", "setting": "fibromyalgia patients; 100 mg/day", "value": 19.5, "unit": "%"},
      {"measurement": "patients who became hypertensive at the end of the study (SBP≧140 mmHg or DBP≧90 mmHg)", "setting": "fibromyalgia patients; 200 mg/day", "value": 16.6, "unit": "%"},
      {"measurement": "incidence of suicidal ideation", "setting": "fibromyalgia patients; 100 mg/day", "value": 0, "unit": "%"},
      {"measurement": "incidence of suicidal ideation", "setting": "fibromyalgia patients; 200 mg/day", "value": 1.3, "unit": "%"},
      {"measurement": "patients who became hypertensive at the end of the study", "setting": "fibromyalgia patients; 100 mg/day", "value": 14, "unit": "%"},
      {"measurement": "patients who became hypertensive at the end of the study", "setting": "fibromyalgia patients; 200 mg/day", "value": 14, "unit": "%"},
      {"measurement": "suicides", "setting": "fibromyalgia patients; short-term or longer-term (up to 1 year) fibromyalgia trials", "value": "No suicides occurred"},
      {"measurement": "activation of mania or hypomania", "setting": "fibromyalgia patients; trials excluded current major depressive episode", "value": "No activation of mania or hypomania was reported"},
      {"measurement": "mean weight loss", "setting": "fibromyalgia patients; 100 mg/day", "value": "approximately 0.8 kg"},
      {"measurement": "mean weight loss", "setting": "fibromyalgia patients; 200 mg/day", "value": "approximately 0.8 kg"},
      {"measurement": "outcome of acute overdoses", "setting": "patients", "value": "fatal outcomes have been reported"},
      {"measurement": "patients with at least 30% reduction in pain from baseline (VAS) and globally improved (PGIC) vs placebo", "setting": "fibromyalgia [1]; [5]", "value": "More patients"},
      {"measurement": "proportion meeting composite response criteria: pain (VAS), physical function (SF-36 PCS), patient global assessment (PGIC), vs placebo", "setting": "fibromyalgia [1]; Studies 1 and 2", "value": "larger proportion"},
      {"measurement": "proportion with simultaneous pain reduction of at least 30% (VAS) and PGIC much or very much improved, vs placebo", "setting": "fibromyalgia [1]; Studies 1 and 2", "value": "larger proportion"},
      {"measurement": "onset of decrease in pain", "setting": "fibromyalgia [1]; both studies, some patients globally much or very much improved, stable dose", "value": "as early as week 1"},
      {"measurement": "benefit of 200 mg/day vs 100 mg/day", "setting": "fibromyalgia [1]; in vivo", "value": "did not confer greater benefit"},
      {"measurement": "patients with at least 30% reduction in pain from baseline (VAS) and globally improved (PGIC) vs placebo", "setting": "fibromyalgia [2]; [5]", "value": "More patients"},
      {"measurement": "benefit of 200 mg/day vs 100 mg/day", "setting": "fibromyalgia [2]; in vivo", "value": "did not confer greater benefit"},
      {"measurement": "plasma protein binding", "setting": "plasma proteins", "value": 13, "unit": "%"},
      {"measurement": "outcome of acute ingestions", "setting": "humans", "value": "none being fatal"}
    ]}
  ]
}
